Measured values published in PMC5587747, “A natural chalcone induces apoptosis in lung cancer cells: 3D-QSAR, docking and an in vivo/vitro assay” (Scientific Reports, 2017).
Values after ≈ are worked out from the molar mass of the structure shown. Like-named read-outs stand apart in the source and are kept apart here.

Assays:
SW1573 = test: MTT cytotoxicity assay, SW1573 cells; type: cell-based, human; conditions: Homo sapiens, lonchocarpin 100 μM, read-out: inhibition rate (IR %)
Protocol: (§1) The cytotoxicities of the tested flavonoids were assayed in ten human lung cancer cell lines (A549, H226, H358, H522, H292, H1944, H460, H1792, SW1573, and Calu-1) using MTT reduction assay. Cisplatin (DDP) was selected as a positive control. Compounds 1–37 were dissolved in DMSO to obtain a clear solution of 1 M, which was diluted to 400 mM, 200 mM, 100 mM, 75 mM, 50 mM, 37.5 mM, 25 mM, 10 mM and 1 mM respectively as stock solutions. The DMSO concentration in the medium was kept below 0.10%. Moreover, the stability of tested compounds in experimental buffer was confirmed at 24 h and 48 h respectively by means of HPLC analysis. Then the human lung cancer cells were placed in 96-well culture plates (5 × 10^4 cells/well) and incubated for 24 h. Then, the cells were pretreated with different concentrations of test samples (gradient concentrations 1.0, 10.0, 25.0, 37.5, 50, 75, 100, 200, 400, 1000 μM for compounds 1–37 and DDP) for 48 h. And cell growth was measured by MTT assays. The cytotoxicities against the lung cancer cells were determined systematically and expressed as IC50 value.

H292 cells [1] = test: Annexin V/PI apoptosis assay by flow cytometry; type: cell-based, human; conditions: H292, 20 μM
Protocol: Cell apoptosis was evaluated by Annexin V/PI staining assay and analyzed using an apoptosis detection kit (Keygen, Nanjing, China)[37]. Briefly, H292 cells were cultured at the density of 1 × 10^6 cells/well. […] Both attached and floating cells were harvested at the arranged time point, and washed twice with ice-cold PBS, then resuspended in 100 μL binding buffer with Annexin V and PI for 15 min at 37 °C in darkness. Finally, the treated cells were analyzed by flow cytometry (Becton Dickinson, Franklin Lakes, NJ, USA) and Cell Quest software. The apoptosis rate was given by the following formula:
Apoptosis rate % = (number of apoptotic cells)/(number of total cells observed) × 100%.

CEM leukaemic cell line = tested on: CEM leukaemic cell line; set-up: method as in PMID 12601679; conditions: cited from earlier work
H522 = test: MTT cytotoxicity assay, H522 cells; type: cell-based, human; conditions: Homo sapiens, NCI-H522, lonchocarpin 100 μM, read-out: inhibition rate (IR %)
Protocol: as §1

H460 = test: MTT cytotoxicity assay, H460 cells; type: cell-based, human; conditions: Homo sapiens, NCI-H460, lonchocarpin 100 μM, read-out: inhibition rate (IR %)
Protocol: as §1

Vero cells = test: Cytotoxicity in Vero cells; type: cell-based; conditions: at 1000 μM
A549 = test: MTT cytotoxicity assay, A549 cells; type: cell-based, human; conditions: Homo sapiens, lonchocarpin 100 μM, read-out: inhibition rate (IR %)
Protocol: as §1

Calu-1 = test: MTT cytotoxicity assay, Calu-1 cells; type: cell-based, human; conditions: Homo sapiens, lonchocarpin 100 μM, read-out: inhibition rate (IR %)
Protocol: as §1

H292 cells [2] = test: MTT cytotoxicity assay, H292 cells; type: cell-based, human; conditions: Homo sapiens, NCI-H292; for IC50: H292 cells
Protocol: as §1

H1944 = test: MTT cytotoxicity assay, H1944 cells; type: cell-based, human; conditions: Homo sapiens, NCI-H1944, lonchocarpin 100 μM, read-out: inhibition rate (IR %)
Protocol: as §1

H1792 = test: MTT cytotoxicity assay, H1792 cells; type: cell-based, human; conditions: Homo sapiens, NCI-H1792, lonchocarpin 100 μM, read-out: inhibition rate (IR %)
Protocol: as §1

[3] = tested on: Bcl-2, Bax, procaspase-3, cleaved caspase-3, cytochrome c, caspase-9 in H292 cells; test: Western blotting of apoptosis-related proteins; type: cell-based, human; conditions: H292, 20 μM
Protocol: Western blotting was performed according to the method described in previous research. […] Then, the cells were harvested and then washed with PBS and lysed in a radio immune-precipitation assay buffer for 30 min. BCA protein assay kit (Byontime, Beijing, China) was used for determination of the total protein contents. And the protein samples were dissolved and seperated on 10% SDS-PAGE gels. After that the proteins were transferred to PVDF (polyvinylidene fluoride) (Bio-Rad, Hercules, CA) membranes and incubated sequentially with blocking buffer, primary antibodies, and horseradish peroxidase-conjugated secondary antibodies.

H226 = test: MTT cytotoxicity assay, H226 cells; type: cell-based, human; conditions: Homo sapiens, NCI-H226, lonchocarpin 100 μM, read-out: inhibition rate (IR %)
Protocol: as §1

S180-bearing mice = test: In vivo antitumor activity in S180 implanted mice; conditions: 12 days; for Tumor weight/g: mean ± SE
Protocol: The animal experiments were carried out according to the National Institute of Health Guide for the Care and Use of Laboratory Animals. And the use of experimental animals was approved by the Animal Ethics Committee of Shenyang Pharmaceutical University. Male Kunming mice, were housed in separate cages under standard conditions (20–24 °C), relative humidity (55% ± 5%) and a 12 h light/12 h dark cycle, and allowed to acclimatize for 3 days prior to the start of experiment. Cultured S180 cells were harvested and washed with sterilized PBS (pH 7.2) three times and resuspended at a density of 6 × 10^6 cells/ml. Mice received subcutaneous implants of 0.2 mL/mouse on the right flank by means of hypodermic injection. Then the mice were divided randomly into 5 groups, including model, positive control and treatment groups with 10 mice in each group after inoculation for 24 h. […] Both groups received oral administrations via an intubation needle every day. […] The weight of the mice was recorded every day throughout the experiment. Finally, the mice were sacrificed by cervical dislocation just 2 h after the last administration. Then the tumor and spleen tissues were harvested and weighed immediately. After that the in vivo tumor inhibition ratio was calculated as: Inhibition ratio (%) = 100((A−B)/A), in which A represents the average tumor weight of the control group and B is recorded as the tumor weight of the administration group. Then, the spleen index was recorded using the following formula:
Spleen index = the final weight of spleen (mg)/the final average body weight (g) without tumor.

H358 = test: MTT cytotoxicity assay, H358 cells; type: cell-based, human; conditions: Homo sapiens, NCI-H358, lonchocarpin 100 μM, read-out: inhibition rate (IR %)
Protocol: as §1

## CC1(C)C=Cc2c(ccc(C(=O)/C=C/c3ccccc3)c2O)O1 [Compound 34, lonchocarpin]
SW1573
  inhibition at 100 µM: 92.3%
H292 cells [1]; 12 h
  early apoptosis (lower right quadrant): 7.2%
  late apoptosis (upper right quadrant): 3.9%
H292 cells [1]; 24 h
  apoptosis: about 41.1%
H292 cells [1]; 48 h
  apoptosis: ~47.9%
CEM leukaemic cell line
  IC50: 10.4 µg/mL (≈ 33.9 µM)
H522
  inhibition at 100 µM: 63%
H460
  inhibition at 100 µM: 76.3%
Vero cells; listed as Lonchocarpin
  cytotoxicity in Vero cells: no cytotoxicity
Vero cells; listed as lonchocarpin
  cytotoxicity in Vero cells: no toxicity
A549
  inhibition at 100 µM: 42.3%
Calu-1
  inhibition at 100 µM: 23.8%
H292 cells [2]; H292, lonchocarpin 100 μM, read-out: inhibition rate (IR %)
  inhibition at 100 µM: 97.5%
H292 cells [2]; MTT, 48 h, read-out: IC50
  IC50: 10 µM
H292 cells [2]; Table S2, read-out: pIC50 (converted)
  IC50: 10 µM
H1944
  inhibition at 100 µM: 69.2%
H1792
  inhibition at 100 µM: 46.7%
[3]
  Bax protein expression: up-regulation
  caspase-9: activation
  cytochrome c protein expression: up-regulation
  procaspase-3 protein expression: reduction
[3]; 24 h and 48 h
  Bcl-2 protein expression: obviously down-regulated
[3]; 48 h
  cleaved caspase-3 protein expression: significantly increased
H226
  inhibition at 100 µM: 62%
S180-bearing mice; 25 mg/kg oral daily
  Body weight/g After experiment: 26.45 ± 0.68 g
  Body weight/g Before experiment: 39.19 ± 2.15 g
  Inhibitory rate (%): 57.94%
  Spleen index: 3.08 mg/g
  Tumor weight/g: 3.39 ± 0.69 g
S180-bearing mice; 50 mg/kg oral daily
  Body weight/g After experiment: 28.99 ± 0.47 g
  Body weight/g Before experiment: 36.48 ± 1.38 g
  Inhibitory rate (%): 63.40%
  Spleen index: 3.17 mg/g
  Tumor weight/g: 2.95 ± 0.66 g
S180-bearing mice; 100 mg/kg oral daily
  Body weight/g After experiment: 28.21 ± 1.98 g
  Body weight/g Before experiment: 38.71 ± 2.20 g
  Inhibitory rate (%): 72.51%
  Spleen index: 3.30 mg/g
  Tumor weight/g: 2.21 ± 0.72 g
H358
  inhibition at 100 µM: 51.3%
